In patent US20150231236A1, “METHODS FOR TREATING PATIENTS WITH HYPERCHOLESTEROLEMIA THAT IS NOT ADEQUATELY CONTROLLED BY MODERATE-DOSE STATIN THERAPY” (Regeneron Pharmaceuticals, Inc., priority 2014, published 2015):

Experiments:
[1] = system: patients with hypercholesterolemia at high CV risk not adequately controlled with rosuvastatin (10 mg or 20 mg); experiment: Example 3: randomized, double-blind trial, lipid efficacy of mAb316P add-on to rosuvastatin vs EZE add-on or rosuvastatin dose doubling; format: in vivo, human; conditions: for Proportion of Patients Reaching LDL-C goal (%): week 24, LDL-C <70 mg/dL very high risk or <100 mg/dL high risk
Method: The present study was a randomized, double-blind, active-comparator, parallel-group study in patients at high CV risk with non-FH or heFH who are not adequately controlled with rosuvastatin (10 mg or 20 mg) with or without other lipid-modifying therapy (LMT) (excluding EZE). The study design is illustrated in FIG. 2. Patients who entered the study were taking either rosuvastatin 10 mg or rosuvastatin 20 mg. The former patients were randomized to 1 of 3 treatment arms (arms 1 to 3); the latter patients were randomized to 1 of 3 treatment arms (arms 4 to 6). The treatment arms are as follows:
(B) a double-blind treatment period of 24 weeks. […] The patient/caregiver administered subsequent injections outside of the clinic according to the dosing schedule. […] The last dose of daily oral study drugs was administered at week 24.
The first injection of study drug was administered at the clinical site, as soon as possible after the patient was randomized into the study. The patient was monitored at the clinical site for at least 30 minutes following the first injection. The patient/caregiver administered subsequent injections outside of the clinic, according to the dosing schedule.
The primary efficacy endpoint was the percent change in calculated LDL-C from baseline to week 24, which is defined as: 100× (calculated LDL-C value at week 24−calculated LDL-C value at baseline)/calculated LDL-C value at baseline. The baseline calculated LDL-C value was the last LDL-C level obtained before the first double-blind study drug injection. The calculated LDL-C at week 24 was the LDL-C level obtained within the week 24 analysis window and during the main efficacy period. The main efficacy period is defined as the time from the first double-blind study drug injection up to 21 days after the last double-blind study drug injection or up to the upper limit of the week 24 analysis window, whichever comes first.
Total-C, HDL-C, TG, ApoB, ApoA-1, and Lp(a) were directly measured by a central laboratory. LDL-C was calculated using the Friedewald formula. […] Non-HDL-C was calculated by subtracting HDL-C from the total-C. Ratio ApoB/ApoA-1 was calculated.
For clarification, the ITT analysis is defined for patients in the ITT population and includes all endpoint assessments in an analysis window, regardless of study treatment dosing status (i.e. includes post-treatment assessments). The on-treatment analysis is defined for patients in the mITT population and includes all endpoint assessments from the first double-blind study drug (capsule or injection, whichever comes first) up to 21 days after the last double-blind study drug injection or 3 days after the last capsule intake, whichever comes first (i.e. includes assessments in the efficacy treatment period).

[2] = system: patients with hypercholesterolemia at high CV risk not adequately controlled with rosuvastatin (10 mg or 20 mg); experiment: Example 3: safety, treatment-emergent adverse events in pooled treatment groups; conditions: mAb316P group
[3] = ITT Population, Comparison 1: mAb316P + rosuvastatin 10 mg arm vs. rosuvastatin 20 mg arm
[4] = ITT Population, Comparison 2: mAb316P + rosuvastatin 10 mg arm vs. EZE + rosuvastatin 10 mg arm
[5] = ITT Population, Comparison 3: mAb316P + rosuvastatin 20 mg arm vs. rosuvastatin 40 mg arm
[6] = ITT Population, Comparison 4: mAb316P + rosuvastatin 20 mg arm vs. EZE + rosuvastatin 20 mg arm
[7] = mITT Population, Comparison 1: mAb316P + rosuvastatin 10 mg arm vs. rosuvastatin 20 mg arm
[8] = mITT Population, Comparison 2: mAb316P + rosuvastatin 10 mg arm vs. EZE + rosuvastatin 10 mg arm
[9] = mITT Population, Comparison 3: mAb316P + rosuvastatin 20 mg arm vs. rosuvastatin 40 mg arm
[10] = mITT Population, Comparison 4: mAb316P + rosuvastatin 20 mg arm vs. EZE + rosuvastatin 20 mg arm

mAb316P: human anti-PCSK9 antibody; heavy chain SEQ ID NO:5, light chain SEQ ID NO:9
Proportion of Patients Reaching LDL-C goal (%) ([1]; Baseline Rosuvastatin 10 mg): 84.9% | Proportion of Patients Reaching LDL-C goal (%) ([1]; Baseline Rosuvastatin 20 mg): 66.7% | LS Mean Difference, percent change from baseline of Apo B to week 24 [1, 3]: −29.2% | LS Mean Difference, percent change from baseline of Apo-B to week 12 [1, 3]: −28.1% | LS Mean Difference, percent change from baseline of HDL-C at week 24 [1, 3]: 7.4% | LS Mean Difference, percent change from baseline of Lp(a) to week 24 [1, 3]: −23.9% | LS Mean Difference, percent change from baseline of Non-HDL-C to week 12 [1, 3]: −29.5% | LS Mean Difference, percent change from baseline of Total-C to week 12 [1, 3]: −20.1% | LS Mean Difference, percent change from baseline of Total-C to week 24 [1, 3]: −20.6% | LS Mean Difference, percent change from baseline of calculated LDL-C to week 12 [1, 3]: −32.5% | LS Mean Difference, percent change from baseline of calculated LDL-C to week 24 [1, 3]: −34.2% | LS Mean Difference, percent change from baseline of non-HDL-C to week 24 [1, 3]: −31.4% | Odds Ratio, proportion of patients reaching calculated LDL-C < 70 mg/dL (1.81 mmol/L) at Week 24 [1, 3]: 18.6 | Odds Ratio, proportion of very high CV risk patients reaching calculated LDL-C < 70 mg/dL or high CV risk patients reaching calculated LDL-C < 100 mg/dL at Week 24 [1, 3]: 10.2 | LS Mean Difference, percent change from baseline of Apo B to week 24 [1, 4]: −26.8% | LS Mean Difference, percent change from baseline of Apo-B to week 12 [1, 4]: −24.0% | LS Mean Difference, percent change from baseline of HDL-C at week 24 [1, 4]: 5.1% | LS Mean Difference, percent change from baseline of Lp(a) to week 24 [1, 4]: −23.6% | LS Mean Difference, percent change from baseline of Non-HDL-C to week 12 [1, 4]: −24.9% | LS Mean Difference, percent change from baseline of Total-C to week 12 [1, 4]: −17.2% | LS Mean Difference, percent change from baseline of Total-C to week 24 [1, 4]: −20.3% | LS Mean Difference, percent change from baseline of calculated LDL-C to week 12 [1, 4]: −32.2% | LS Mean Difference, percent change from baseline of calculated LDL-C to week 24 [1, 4]: −36.1% | LS Mean Difference, percent change from baseline of non-HDL-C to week 24 [1, 4]: −29.3% | Odds Ratio, proportion of patients reaching calculated LDL-C < 70 mg/dL (1.81 mmol/L) at Week 24 [1, 4]: 11.6 | Odds Ratio, proportion of very high CV risk patients reaching calculated LDL-C < 70 mg/dL or high CV risk patients reaching calculated LDL-C < 100 mg/dL at Week 24 [1, 4]: 7.8 | LS Mean Difference, percent change from baseline of Apo B to week 24 [1, 5]: −18.5% | LS Mean Difference, percent change from baseline of Apo-B to week 12 [1, 5]: −15.3% | LS Mean Difference, percent change from baseline of HDL-C at week 24 [1, 5]: 5.7% | LS Mean Difference, percent change from baseline of Lp(a) to week 24 [1, 5]: −17.5% | LS Mean Difference, percent change from baseline of Non-HDL-C to week 12 [1, 5]: −11.8% | LS Mean Difference, percent change from baseline of Total-C to week 12 [1, 5]: −5.5% | LS Mean Difference, percent change from baseline of Total-C to week 24 [1, 5]: −12.1% | LS Mean Difference, percent change from baseline of calculated LDL-C to week 12 [1, 5]: −10.2% | LS Mean Difference, percent change from baseline of calculated LDL-C to week 24 [1, 5]: −20.3% | LS Mean Difference, percent change from baseline of non-HDL-C to week 24 [1, 5]: −20.1% | Odds Ratio, proportion of patients reaching calculated LDL-C < 70 mg/dL (1.81 mmol/L) at Week 24 [1, 5]: 6.1 | Odds Ratio, proportion of very high CV risk patients reaching calculated LDL-C < 70 mg/dL or high CV risk patients reaching calculated LDL-C < 100 mg/dL at Week 24 [1, 5]: 4.7 | LS Mean Difference, percent change from baseline of Apo B to week 24 [1, 6]: −17.1% | LS Mean Difference, percent change from baseline of Apo-B to week 12 [1, 6]: −14.7% | LS Mean Difference, percent change from baseline of HDL-C at week 24 [1, 6]: 9.0% | LS Mean Difference, percent change from baseline of Lp(a) to week 24 [1, 6]: −16.9% | LS Mean Difference, percent change from baseline of Non-HDL-C to week 12 [1, 6]: −11.0% | LS Mean Difference, percent change from baseline of Total-C to week 12 [1, 6]: −5.5% | LS Mean Difference, percent change from baseline of Total-C to week 24 [1, 6]: −8.2% | LS Mean Difference, percent change from baseline of calculated LDL-C to week 12 [1, 6]: −12.9% | LS Mean Difference, percent change from baseline of calculated LDL-C to week 24 [1, 6]: −25.3% | LS Mean Difference, percent change from baseline of non-HDL-C to week 24 [1, 6]: −18.4% | Odds Ratio, proportion of patients reaching calculated LDL-C < 70 mg/dL (1.81 mmol/L) at Week 24 [1, 6]: 2.5 | Odds Ratio, proportion of very high CV risk patients reaching calculated LDL-C < 70 mg/dL or high CV risk patients reaching calculated LDL-C < 100 mg/dL at Week 24 [1, 6]: 2.3 | proportion of patients who reached LDL-C level of <70 mg/dL (1.81 mmol/L) at Week 24 ([1]; baseline rosuvastatin 10 mg regimen): 77.8% | proportion of patients who reached LDL-C level of <70 mg/dL (1.81 mmol/L) at Week 24 ([1]; baseline rosuvastatin 20 mg regimen): 60.1% | LS Mean Difference, percent change from baseline of Apo B to week 24 [1, 7]: −30.7% | LS Mean Difference, percent change from baseline of calculated LDL-C to week 12 [1, 7]: −35.3% | LS Mean Difference, percent change from baseline of calculated LDL-C to week 24 [1, 7]: −35.2% | LS Mean Difference, percent change from baseline of non-HDL-C to week 24 [1, 7]: −32.8% | Odds Ratio, proportion of patients reaching calculated LDL-C < 70 mg/dL (1.81 mmol/L) at Week 24 [1, 7]: 20.3 | Odds Ratio, proportion of very high CV risk patients reaching calculated LDL-C < 70 mg/dL or high CV risk patients reaching calculated LDL-C < 100 mg/dL at Week 24 [1, 7]: 12.4 | LS Mean Difference, percent change from baseline of Apo B to week 24 [1, 8]: −28.3% | LS Mean Difference, percent change from baseline of calculated LDL-C to week 12 [1, 8]: −32.3% | LS Mean Difference, percent change from baseline of calculated LDL-C to week 24 [1, 8]: −33.2% | LS Mean Difference, percent change from baseline of non-HDL-C to week 24 [1, 8]: −28.2% | Odds Ratio, proportion of patients reaching calculated LDL-C < 70 mg/dL (1.81 mmol/L) at Week 24 [1, 8]: 12.7 | Odds Ratio, proportion of very high CV risk patients reaching calculated LDL-C < 70 mg/dL or high CV risk patients reaching calculated LDL-C < 100 mg/dL at Week 24 [1, 8]: 8.9 | LS Mean Difference, percent change from baseline of Apo B to week 24 [1, 9]: −17.7% | LS Mean Difference, percent change from baseline of calculated LDL-C to week 12 [1, 9]: −12.3% | LS Mean Difference, percent change from baseline of calculated LDL-C to week 24 [1, 9]: −24.5% | LS Mean Difference, percent change from baseline of non-HDL-C to week 24 [1, 9]: −20.7% | Odds Ratio, proportion of patients reaching calculated LDL-C < 70 mg/dL (1.81 mmol/L) at Week 24 [1, 9]: 9.0 | Odds Ratio, proportion of very high CV risk patients reaching calculated LDL-C < 70 mg/dL or high CV risk patients reaching calculated LDL-C < 100 mg/dL at Week 24 [1, 9]: 5.9 | LS Mean Difference, percent change from baseline of Apo B to week 24 [1, 10]: −17.8% | LS Mean Difference, percent change from baseline of calculated LDL-C to week 12 [1, 10]: −13.3% | LS Mean Difference, percent change from baseline of calculated LDL-C to week 24 [1, 10]: −24.9% | LS Mean Difference, percent change from baseline of non-HDL-C to week 24 [1, 10]: −17.4% | Odds Ratio, proportion of patients reaching calculated LDL-C < 70 mg/dL (1.81 mmol/L) at Week 24 [1, 10]: 3.4 | Odds Ratio, proportion of very high CV risk patients reaching calculated LDL-C < 70 mg/dL or high CV risk patients reaching calculated LDL-C < 100 mg/dL at Week 24 [1, 10]: 2.7 | TEAE influenza [2]: 4 patients | TEAE upper respiratory tract infection [2]: 6 patients | TEAE urinary tract infection [2]: 4 patients
